Measurements published in patent US4889857A, “Quinolonecarboxylic acid compounds and pharmaceutical use thereof” (Yoshitomi Pharmaceutical Industries, Ltd., priority 1987, dated 1989).
In brackets after ≈: the same amount, converted by molar mass. Where two headings read alike, the source gives them in different places.

Columns and labels:
[1] = system: Streptocccus pneumoniae Type 1; assay: Antibacterial activity in vitro (MIC); type: cell-based
[2] = system: Pseudomonas cepacia 739; assay: Antibacterial activity in vitro (MIC); type: cell-based; conditions: Burkholderia cepacia, inoculum 10^6 cells/ml
[3] = system: Staphylococcus aureus FDA 209P*; assay: Antibacterial activity in vitro (MIC), horse blood medium; type: cell-based; conditions: FDA209P
Experimental: (§1) The antibacterial activities in vitro (minimum inhibitory concentration, MIC, μg/ml) of the test compounds were measured according to the standard method of the Japanese Chemotherapy Society (Chemotherapy, Vol. 23, p.1126, 1974).
(§2) (Inoculum size: 10^6 cells/ml, Organisms with asterisk (*) were
(§3) cultivated in a 10% horse bloodadded medium.)

[4] = system: Pediococcus damnosus IFO 3895; assay: Antibacterial activity in vitro (MIC); type: cell-based
Experimental: as §1, §2, §3

[5] = system: Shigella typhosa Boxhill-58; assay: Antibacterial activity in vitro (MIC); type: cell-based
Experimental: as §1, §2, §3

[6] = system: Pseudomonas aeruginosa IFO 12582; assay: Antibacterial activity in vitro (MIC); type: cell-based
Experimental: as §1, §2, §3

[7] = system: Pseudomonas aeruginosa U-31; assay: Antibacterial activity in vitro (MIC); type: cell-based; conditions: U31, inoculum 10^6 cells/ml, read-out: MIC
Experimental: as §1, §2, §3

[8] = system: Staphylococcus epidermidis ATCC 12228; assay: Antibacterial activity in vitro (MIC); type: cell-based
Experimental: as §1, §2, §3

[9] = system: Escherichia coli NIHJ JC-2; assay: Antibacterial activity in vitro (MIC); type: cell-based
Experimental: as §1, §2, §3

[10] = system: Corynebacterium diphtheriae Tronto; assay: Antibacterial activity in vitro (MIC); type: cell-based
Experimental: as §1, §2, §3

[11] = system: Shigella sonnei EW-33; assay: Antibacterial activity in vitro (MIC); type: cell-based; conditions: EW33, inoculum 10^6 cells/ml
Experimental: as §1, §2, §3

[12] = system: Escherichia coli T-7; assay: Antibacterial activity in vitro (MIC); type: cell-based; conditions: T7, inoculum 10^6 cells/ml
Experimental: as §1, §2, §3

[13] = system: Escherichia coli O-111; assay: Antibacterial activity in vitro (MIC); type: cell-based; conditions: O111, inoculum 10^6 cells/ml
Experimental: as §1, §2, §3

[14] = system: Pseudomonas putida IFO 12996; assay: Antibacterial activity in vitro (MIC); type: cell-based; conditions: IFO12996, inoculum 10^6 cells/ml, read-out: MIC
Experimental: as §1, §2, §3

[15] = system: Xanthomonas maltophilia IFO 12690; assay: Antibacterial activity in vitro (MIC); type: cell-based; conditions: Stenotrophomonas maltophilia, IFO12690; inoculum 10^6 cells/ml
Experimental: as §1, §2, §3

[16] = system: Bacillus subtilis PCT 219; assay: Antibacterial activity in vitro (MIC); type: cell-based
Experimental: as §1, §2, §3

[17] = system: Streptococcus viridans America; assay: Antibacterial activity in vitro (MIC); type: cell-based
Experimental: as §1, §2, §3

[18] = system: Staphylococcus aureus 1840; assay: Antibacterial activity in vitro (MIC); type: cell-based
Experimental: as §1, §2, §3

[19] = system: Citrobacter freundii IFO 12681; assay: Antibacterial activity in vitro (MIC); type: cell-based; conditions: IFO12681, inoculum 10^6 cells/ml
Experimental: as §1, §2, §3

[20] = system: Streptococcus sp. IFO 3535; assay: Antibacterial activity in vitro (MIC); type: cell-based; conditions: IFO3535, inoculum 10^6 cells/ml, 10% horse blood-added medium, read-out: MIC
Experimental: as §1, §2, §3

[21] = system: Proteus mirabilis IFO 3849; assay: Antibacterial activity in vitro (MIC); type: cell-based; conditions: IFO3849, inoculum 10^6 cells/ml, read-out: MIC
Experimental: as §1, §2, §3

[22] = system: Morganella morganii IFO 3168; assay: Antibacterial activity in vitro (MIC); type: cell-based; conditions: IFO3168, inoculum 10^6 cells/ml, read-out: MIC
Experimental: as §1, §2, §3

[23] = system: Staphylococcus aureus FDA 209P; assay: Antibacterial activity in vitro (MIC); type: cell-based; conditions: FDA209P
Experimental: as §1, §2, §3

[24] = system: Serratia marcescens IFO 12648; assay: Antibacterial activity in vitro (MIC); type: cell-based
Experimental: as §1, §2, §3

[25] = system: Streptococcus lactis IFO 12546; assay: Antibacterial activity in vitro (MIC); type: cell-based; conditions: Lactococcus lactis, IFO12546; inoculum 10^6 cells/ml; 10% horse blood-added medium; read-out: MIC
Experimental: as §1, §2, §3

[26] = system: Klebsiella pneumoniae DT; assay: Antibacterial activity in vitro (MIC); type: cell-based
Experimental: as §1, §2, §3

[27] = system: Acinetobacter calcoaceticus ATCC 13006; assay: Antibacterial activity in vitro (MIC); type: cell-based
Experimental: as §1, §2, §3

[28] = system: Shigella flexneri EW-10; assay: Antibacterial activity in vitro (MIC); type: cell-based; conditions: EW10, inoculum 10^6 cells/ml
Experimental: as §1, §2, §3

[29] = system: Proteus vulgaris IFO 3988; assay: Antibacterial activity in vitro (MIC); type: cell-based
Experimental: as §1, §2, §3

[30] = system: Flavobacterium meningosepticum IFO 12535; assay: Antibacterial activity in vitro (MIC); type: cell-based; conditions: Elizabethkingia meningoseptica, IFO12535; inoculum 10^6 cells/ml
[31] = system: Streptococcus pyogenes E-14; assay: Antibacterial activity in vitro (MIC); type: cell-based
[32] = system: S. pyogenes C-203; assay: Protective effect against experimental infection in mice; type: in vivo; conditions: oral, 1 h after i.p. inoculation of 4.42 × 10^4 cells/mouse [680 LD50]; survival day 7; 95% confidence limit
Experimental: (§4) Experimental infection was caused by inoculating male mice intraperitoneally with each organism. Each of the test compounds was administered orally to the mice, one hour after the inoculation. The therapeutic effect of each compounds was judged by using a 50% effective dose (ED50) from the survival rate on day 7 after injection by the Probit method as described in Proc. Soc. Exp. Biol. Med., Vol. 57, p.261-264, 1944. The Minimum inhibitory concentrations (MIC) were also measured.
(§5) (The overnight cultures of test organisms with an asterisk (*) were
(§6) diluted with 50% mucin and 0.5 ml of each was injected intraperitoneally
(§7) into mice. A double asterisk (**) means a 95% confidence limit. MRSA mean
(§8) methycillinresistant Staphylococcus aureus.)

[33] = system: S. pneumoniae Type III; assay: as above; type: in vivo; conditions: oral, 1 h after i.p. inoculation of 6.0 × 10^2 cells/mouse [12 LD50]; survival day 7; 95% confidence limit
Experimental: as §4, §5, §6, §7, §8

[34] = system: Staphylococcus epidermidis ATCC 12983; assay: Antibacterial activity in vitro (MIC); type: cell-based
[35] = system: Aerococcus viridans IFO 12219; assay: microbe, parasite or virus in culture; conditions: IFO12219
[36] = inoculum 10^6 cells/ml, 10% horse blood-added medium, read-out: MIC
[37] = inoculum 10^6 cells/ml, read-out: MIC

Structure (SMILES)	MIC [2] [µg/mL]	MIC [5] [µg/mL]	MIC [7] [µg/mL]	MIC [11] [µg/mL]	MIC [12] [µg/mL]	MIC [13] [µg/mL]	MIC [14] [µg/mL]	MIC [15] [µg/mL]	MIC [19] [µg/mL]	MIC [20] [µg/mL]	MIC [21] [µg/mL]	MIC [22] [µg/mL]	MIC [25] [µg/mL]	MIC [28] [µg/mL]	MIC [30] [µg/mL]	ED50 [32]	ED50 [33]	MIC [35] [µg/mL]	other results
CC1COc2c(N3CCN(C)CC3)c(F)cc3c(=O)c(C(=O)O)cn1c23 (stereo not shown) [OFLX, 9-fluoro-3-methyl-10-(4-methyl-1-piperazinyl)-7-oxo-2,3-dihydro-7H-pyrido[1,2,3-de][1,4]-benzoxazine-6-carboxylic acid]	0.78 (≈ 2.16 µM)	0.025 (≈ 0.0692 µM)	0.78 (≈ 2.16 µM)	0.025 (≈ 0.0692 µM)	0.05 (≈ 0.138 µM)	0.05 (≈ 0.138 µM)	1.56 (≈ 4.32 µM)	0.05 (≈ 0.138 µM)	0.05 (≈ 0.138 µM)	3.13 (≈ 8.66 µM)	0.39 (≈ 1.08 µM)	0.1 (≈ 0.277 µM)	6.25 (≈ 17.3 µM)	0.05 (≈ 0.138 µM)	0.78 (≈ 2.16 µM)	1.432(1.006-2.393) mg/mouse	> 2 mg/mouse	3.13 (≈ 8.66 µM)	MIC [1, 36]: 0.78 µg/mL (≈ 2.16 µM); MIC [3, 36]: 0.2 µg/mL (≈ 0.553 µM); MIC ([4]; IFO3895, inoculum 10^6 cells/ml, 10% horse blood-added medium, read-out: MIC): 0.2 µg/mL (≈ 0.553 µM); MIC ([6]; IFO12582, inoculum 10^6 cells/ml, read-out: MIC): 1.56 µg/mL (≈ 4.32 µM); MIC ([8]; ATCC12228, inoculum 10^6 cells/ml, 10% horse blood-added medium, read-out: MIC): 0.2 µg/mL (≈ 0.553 µM); MIC ([9]; NIHJJC2, inoculum 10^6 cells/ml, read-out: MIC): 0.1 µg/mL (≈ 0.277 µM); MIC [10, 36]: 0.2 µg/mL (≈ 0.553 µM); MIC ([16]; PCT219): 0.05 µg/mL (≈ 0.138 µM); MIC [17, 36]: 1.56 µg/mL (≈ 4.32 µM); MIC [18, 37]: 1.56 µg/mL (≈ 4.32 µM); MIC [23, 37]: 0.2 µg/mL (≈ 0.553 µM); MIC ([24]; IFO12648, inoculum 10^6 cells/ml, read-out: MIC): 0.2 µg/mL (≈ 0.553 µM); MIC [26, 37]: 0.1 µg/mL (≈ 0.277 µM); MIC ([27]; ATCC13006, inoculum 10^6 cells/ml, read-out: MIC): 0.2 µg/mL (≈ 0.553 µM); MIC ([29]; IFO3988, inoculum 10^6 cells/ml, read-out: MIC): 0.1 µg/mL (≈ 0.277 µM); MIC ([31]; E14, inoculum 10^6 cells/ml, 10% horse blood-added medium, read-out: MIC): 0.78 µg/mL (≈ 2.16 µM); MIC ([34]; ATCC12983, inoculum 10^6 cells/ml, 10% horse blood-added medium, read-out: MIC): 0.39 µg/mL (≈ 1.08 µM)
CNCC1CN(c2c(F)cc3c(=O)c(C(=O)O)cn(C4CC4)c3c2F)CCO1 (stereo not shown) [Compound A, 1-cyclopropyl-6,8-difluoro-1,4,-dihydro-7-[2-(methylaminomethyl)morpholino]-4-oxoquinoline-3-carboxylic acid]	1.56 (≈ 3.97 µM)	0.05 (≈ 0.127 µM)	1.56 (≈ 3.97 µM)	0.025 (≈ 0.0636 µM)	0.1 (≈ 0.254 µM)	0.2 (≈ 0.508 µM)	1.56 (≈ 3.97 µM)	0.1 (≈ 0.254 µM)	0.2 (≈ 0.508 µM)	1.56 (≈ 3.97 µM)	1.56 (≈ 3.97 µM)	1.56 (≈ 3.97 µM)	1.56 (≈ 3.97 µM)	0.025 (≈ 0.0636 µM)	1.56 (≈ 3.97 µM)	0.214(0.124-0.388) mg/mouse	0.707(0.453-1.104) mg/mouse	0.1 (≈ 0.254 µM)	MIC [1]: 0.05 µg/mL (≈ 0.127 µM); MIC [3]: 0.025 µg/mL (≈ 0.0636 µM); MIC ([4]; IFO3895): 0.39 µg/mL (≈ 0.991 µM); MIC ([6]; IFO12582): 3.13 µg/mL (≈ 7.96 µM); MIC ([8]; ATCC12228): 0.05 µg/mL (≈ 0.127 µM); MIC ([9]; NIHJJC2): 0.1 µg/mL (≈ 0.254 µM); MIC [10]: 0.025 µg/mL (≈ 0.0636 µM); MIC ([16]; PCT219, inoculum 10^6 cells/ml, read-out: MIC): 0.012 µg/mL (≈ 0.0305 µM); MIC [17]: 0.2 µg/mL (≈ 0.508 µM); MIC [18]: 0.1 µg/mL (≈ 0.254 µM); MIC [23]: 0.025 µg/mL (≈ 0.0636 µM); MIC ([24]; IFO12648): 0.78 µg/mL (≈ 1.98 µM); MIC [26]: 0.2 µg/mL (≈ 0.508 µM); MIC ([27]; ATCC13006): 0.39 µg/mL (≈ 0.991 µM); MIC ([29]; IFO3988): 0.78 µg/mL (≈ 1.98 µM); MIC ([31]; E14): 0.1 µg/mL (≈ 0.254 µM); MIC ([34]; ATCC12983): 0.05 µg/mL (≈ 0.127 µM)
